Target: T1, His-hMAGL (recombinant polyhistidine tagged human MAGL protein) (Homo sapiens, UniProt Q99685)
T1 construct: made in house; host or cells: E. coli BL21(DE3)
T1 sequence (Q99685 1-303): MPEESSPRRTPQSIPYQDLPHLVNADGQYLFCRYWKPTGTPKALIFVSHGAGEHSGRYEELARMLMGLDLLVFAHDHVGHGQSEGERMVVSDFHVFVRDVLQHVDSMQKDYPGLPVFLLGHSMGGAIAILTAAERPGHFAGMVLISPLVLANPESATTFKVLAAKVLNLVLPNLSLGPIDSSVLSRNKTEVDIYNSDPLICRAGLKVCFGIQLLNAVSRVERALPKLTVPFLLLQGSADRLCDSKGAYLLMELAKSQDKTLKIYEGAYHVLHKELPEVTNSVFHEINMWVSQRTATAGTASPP
Assay: Measurement of MAGL inhibitory activity (arachidonic acid production from 2-arachidonylglycerol, RapidFire-mass spectrometry)
Assay type: biochemical
Conditions: MAGL inhibitory rate at 10 μM test compound, 60 min preincubation with His-hMAGL, 2-arachidonylglycerol substrate, 10 min reaction at room temperature
Summary of the method: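 Recombinant His-tagged human MAGL converted 2-arachidonylglycerol to arachidonic acid. Reactions received acetonitrile with 3 μM arachidonic acid-d8 as internal standard, and product was quantified by RapidFire SPE (C4) with negative-mode SRM mass spectrometry. Percent inhibition was calculated against compound-free and enzyme-free controls.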

inhibition at 10 µM [%] | % inhibition (10 μM) [%] | Compound
101 |  | Cc1cc(F)ccc1OCC1CN(C(=O)c2cc3c(cc2F)OCC(=O)N3)C1 [Example 120, 7-fluoro-6-((3-((4-fluoro-2-methylphenoxy)methyl)azetidin-1-yl)carbonyl)-2H-1,4-benzoxazin-3(4H)-one]
99 |  | Cc1cncc(-c2ccc(OCC3CN(C(=O)c4cc5c(cc4F)OCC(=O)N5)C3)c(F)c2)c1 [Example 236, 7-fluoro-6-((3-((2-fluoro-4-(5-methylpyridin-3-yl)phenoxy)methyl)azetidin-1-yl)carbonyl)-2H-1,4-benzoxazin-3(4H)-one]
99 |  | Cn1ccc(-c2ccc(OCC3CN(C(=O)c4cc5c(cc4F)OCC(=O)N5)C3)c(F)c2)n1 [Example 252, 7-fluoro-6-((3-((2-fluoro-4-(1-methyl-1H-pyrazol-3-yl)phenoxy)methyl)azetidin-1-yl)carbonyl)-2H-1,4-benzoxazin-3(4H)-one]
102 |  | Cc1ncccc1-c1cc(Cl)ccc1OCC1CN(C(=O)c2cc3c(cc2F)OCC(=O)N3)C1 [Example 191, 6-((3-((4-chloro-2-(2-methylpyridin-3-yl)phenoxy)methyl)azetidin-1-yl)carbonyl)-7-fluoro-2H-1,4-benzoxazin-3(4H)-one]
101 |  | O=C1COc2cc(F)c(C(=O)N3CC(COc4cccc5ocnc45)C3)cc2N1 [Example 106, 6-((3-((1,3-benzoxazol-4-yloxy)methyl)azetidin-1-yl)carbonyl)-7-fluoro-2H-1,4-benzoxazin-3(4H)-one]
102 |  | Cc1ccc(OCC2CN(C(=O)c3cc4c(cc3F)OCC(=O)N4)C2)cc1 [Example 161, 7-fluoro-6-((3-((4-methylphenoxy)methyl)azetidin-1-yl)carbonyl)-2H-1,4-benzoxazin-3(4H)-one]
99 |  | COc1cc(F)ccc1OCC1CN(C(=O)c2cc3c(cc2F)OCC(=O)N3)C1 [Example 121, 7-fluoro-6-((3-((4-fluoro-2-methoxyphenoxy)methyl)azetidin-1-yl)carbonyl)-2H-1,4-benzoxazin-3(4H)-one]
101 |  | O=C1COc2cc(F)c(C(=O)N3CC(COc4ccc(-c5ccncc5Cl)cc4F)C3)cc2N1 [Example 243, 6-((3-((4-(3-chloropyridin-4-yl)-2-fluorophenoxy)methyl)azetidin-1-yl)carbonyl)-7-fluoro-2H-1,4-benzoxazin-3(4H)-one]
102 |  | Cc1cccc(OCC2CN(C(=O)c3cc4c(cc3F)OCC(=O)N4)C2)c1 [Example 162, 7-fluoro-6-((3-((3-methylphenoxy)methyl)azetidin-1-yl)carbonyl)-2H-1,4-benzoxazin-3(4H)-one]
100 |  | Cc1ccc(OCC2CN(C(=O)c3cc4c(cc3F)OCC(=O)N4)C2)cc1C [Example 163, 6-((3-((3,4-dimethylphenoxy)methyl)azetidin-1-yl)carbonyl)-7-fluoro-2H-1,4-benzoxazin-3(4H)-one]
99 |  | Cc1ccc(OCC2CN(C(=O)c3cc4c(cc3F)OCC(=O)N4)C2)cc1Cl [Example 183, 6-((3-((3-chloro-4-methylphenoxy)methyl)azetidin-1-yl)carbonyl)-7-fluoro-2H-1,4-benzoxazin-3(4H)-one]
100 |  | CC(C)c1ccccc1OCC1CN(C(=O)c2cc3c(cc2F)OCC(=O)N3)C1 [Example 160, 7-fluoro-6-((3-((2-isopropylphenoxy)methyl)azetidin-1-yl)carbonyl)-2H-1,4-benzoxazin-3(4H)-one]
99 |  | O=C1COc2cc(F)c(C(=O)N3CC(COc4ccc(-c5ccc6c(c5)CCO6)cc4F)C3)cc2N1 [Example 257, 6-((3-((4-(2,3-dihydro-1-benzofuran-5-yl)-2-fluorophenoxy)methyl)azetidin-1-yl)carbonyl)-7-fluoro-2H-1,4-benzoxazin-3(4H)-one]
101 |  | Cc1nc2ccc(OCC3CN(C(=O)c4cc5c(cc4F)OCC(=O)N5)C3)cc2s1 [Example 152, 7-fluoro-6-((3-(((2-methyl-1,3-benzothiazol-6-yl)oxy)methyl)azetidin-1-yl)carbonyl)-2H-1,4-benzoxazin-3(4H)-one]

More lines, now with the values behind:

Compound | inhibition at 10 µM [%] | % inhibition (10 μM) [%]
N#CC1(COc2ccc(F)cc2Cl)CCN(C(=O)c2cc3c(cc2F)OCC(=O)N3)CC1 [Example 81, 4-((2-chloro-4-fluorophenoxy)methyl)-1-((7-fluoro-3-oxo-3,4-dihydro-2H-1,4-benzoxazin-6-yl)carbonyl)piperidine-4-carbonitrile] | 99 | 
O=C1COc2ccc(C(=O)N3CCC(COc4ccccc4)CC3)cc2N1 [Example 12, 6-((4-(phenoxymethyl)piperidin-1-yl)carbonyl)-2H-1,4-benzoxazin-3(4H)-one] | 99 | 
O=C1COc2ccc(C(=O)N3CCC(COc4ccc(Cl)nc4)CC3)cc2N1 [Example 44, 6-((4-(((6-chloropyridin-3-yl)oxy)methyl)piperidin-1-yl)carbonyl)-2H-1,4-benzoxazin-3(4H)-one] | 90 | 
O=C1COc2ncc(C(=O)N3CC(COCc4ccccc4)C3)cc2N1 [Example 14, 7-((3-((benzyloxy)methyl)azetidin-1-yl)carbonyl)-1H-pyrido[2.3-b][1,4]oxazin-2(3H)-one] | 80 | 
N#Cc1cccc(OCC2CCN(C(=O)c3cc4c(cc3F)OCC(=O)N4)CC2)c1Cl [Example 75, 2-chloro-3-((1-((7-fluoro-3-oxo-3,4-dihydro-2H-1,4-benzoxazin-6-yl)carbonyl)piperidin-4-yl)methoxy)benzonitrile] | 102 | 
O=C1COc2cc(F)c(C(=O)N3CC(F)(COc4ccc(F)cc4Cl)C3)cc2N1 [Example 96, 6-((3-((2-chloro-4-fluorophenoxy)methyl)-3-fluoroazetidin-1-yl)carbonyl)-7-fluoro-2H-1,4-benzoxazin-3(4H)-one] | 100 | 
O=C1COc2cc(F)c(C(=O)N3CC(COc4ccccc4-c4ccccc4)C3)cc2N1 [Example 109, 6-((3-((biphenyl-2-yloxy)methyl)azetidin-1-yl)carbonyl)-7-fluoro-2H-1,4-benzoxazin-3(4H)-one] | 103 | 
CC(Oc1ccc(F)cc1Cl)C1CCN(C(=O)c2cc3c(cc2F)OCC(=O)N3)CC1 (stereo not drawn) [Example 296, 6-((4-(1-(2-chloro-4-fluorophenoxy)ethyl)piperidin-1-yl)carbonyl)-7-fluoro-2H-1,4-benzoxazin-3(4H)-one] |  | 101
O=C1COc2ccc(C(=O)N3CC(OCc4ccccc4)C3)cc2N1 [Example 326, 6-((3-(benzyloxy)azetidin-1-yl)carbonyl)-2H-1,4-benzoxazin-3(4H)-one] | 98 | 
CC(C)(O)c1ccc(OCC2CCN(C(=O)c3cc4c(cc3F)OCC(=O)N4)CC2)c(Cl)c1 [Example 90, 6-((4-((2-chloro-4-(2-hydroxypropan-2-yl)phenoxy)methyl)piperidin-1-yl)carbonyl)-7-fluoro-2H-1,4-benzoxazin-3(4H)-one] | 98 | 
O=C1COc2ccc(C(=O)N3CC(COc4ccc(F)cc4Cl)C3)cc2N1 [Example 78, 6-((3-((2-chloro-4-fluorophenoxy)methyl)azetidin-1-yl)carbonyl)-2H-1,4-benzoxazin-3(4H)-one] | 100 | 
O=C1COc2ccc(C(=O)N3CCC(COc4ccc(F)cc4Cl)CC3)cc2N1 [Example 26, 6-((4-((2-chloro-4-fluorophenoxy)methyl)piperidin-1-yl)carbonyl)-2H-1,4-benzoxazin-3 (4H)-one] | 101 | 
O=C1COc2cc(F)c(C(=O)N3CCC(COc4cccc(-c5ccccc5)c4)CC3)cc2N1 [Example 150, 6-((4-((biphenyl-3-yloxy)methyl)piperidin-1-yl)carbonyl)-7-fluoro-2H-1,4-benzoxazin-3(4H)-one] | 100 | 
O=C1COc2ccc(C(=O)N3CCC(COc4cc(Cl)ncc4Cl)CC3)cc2N1 [Example 47, 6-((4-(((2,5-dichloropyridin-4-yl)oxy)methyl)piperidin-1-yl)carbonyl)-2H-1,4-benzoxazin-3(4H)-one] | 98 | 
O=C1COc2cc(F)c(C(=O)N3CC(COCc4ccccc4Cl)C3)cc2N1 [Example 148, 6-((3-(((2-chlorobenzyl)oxy)methyl)azetidin-1-yl)carbonyl)-7-fluoro-2H-1,4-benzoxazin-3(4H)-one] | 102 | 
CC(Oc1ccc(F)cc1Cl)C1CCN(C(=O)c2cc3c(cc2F)OCC(=O)N3)CC1 (stereo not drawn) [Example 295, 6-((4-(1-(2-chloro-4-fluorophenoxy)ethyl)piperidin-1-yl)carbonyl)-7-fluoro-2H-1,4-benzoxazin-3(4H)-one] |  | 101
O=C1COc2cc(F)c(C(=O)N3CCC(O)(COc4ccc(F)cc4Cl)CC3)cc2N1 [Example 73, 6-((4-((2-chloro-4-fluorophenoxy)methyl)-4-hydroxypiperidin-1-yl)carbonyl)-7-fluoro-2H-1,4-benzoxazin-3(4H)-one] | 102 | 
O=C1COc2ccc(C(=O)N3CCC(COc4ccc(Cl)cc4Cl)CC3)cc2N1 [Example 23, 6-((4-((2,4-dichlorophenoxy)methyl)piperidin-1-yl)carbonyl)-2H-1,4-benzoxazin-3(4H)-one] | 100 | 
N#Cc1ccc(OCC2CN(C(=O)c3cc4c(cc3F)OCC(=O)N4)C2)cc1Cl [Example 138, 2-chloro-4-((1-((7-fluoro-3-oxo-3,4-dihydro-2H-1,4-benzoxazin-6-yl)carbonyl)azetidin-3-yl)methoxy)benzonitrile] | 100 | 

From patent US10106556B2, “Heterocyclic compound” (TAKEDA PHARMACEUTICAL COMPANY LIMITED, priority 2015, dated 2018)
